Experiment: pH versus accelerated stability of octreotide acetate solutions (HPLC)
Format: physicochemical
Conditions: 70° C.
Method: For this study, 0.2 mg/mL octreotide acetate solutions in different pH buffers (buffer ionic strength=˜50 mM) were incubated at 70° C. At various designated times, the concentration of octreotide was determined using HPLC. The degradation rate versus time (Kobs) was calculated and plotted.

[1] = pH 4.0, Arginine-Acetate, 0 hours
[2] = pH 4.0, Arginine-Acetate, 24 hours
[3] = pH 4.0, Arginine-Acetate, 48 hours
[4] = pH 4.0, Arginine-Acetate, 69 hours
[5] = pH 5.0, Arginine-Acetate, 0 hours
[6] = pH 5.0, Arginine-Acetate, 24 hours
[7] = pH 5.0, Arginine-Acetate, 48 hours
[8] = pH 5.0, Arginine-Acetate, 69 hours

## C[C@@H](O)[C@@H]1NC(=O)[C@H](CCCCN)NC(=O)[C@@H](Cc2c[nH]c3ccccc23)NC(=O)[C@H](Cc2ccccc2)NC(=O)[C@@H](NC(=O)[C@H](N)Cc2ccccc2)CSSC[C@@H](C(=O)N[C@H](CO)[C@@H](C)O)NC1=O [Octreotide, octreotide acetate]
Between a pH of 3.0 and 5.0
  stability in solution: relatively stable
pH 2.0, Glycine-HCl, 0 hours
  Octreotide Assay: 0.1965 mg/mL
  Octreotide Assay (% Stability): (100.00) %
pH 2.0, Glycine-HCl, 24 hours
  Octreotide Assay: 0.1651 mg/mL
  Octreotide Assay (% Stability): (84.02) %
pH 2.0, Glycine-HCl, 48 hours
  Octreotide Assay: 0.1425 mg/mL
  Octreotide Assay (% Stability): (72.52) %
pH 2.0, Glycine-HCl, 69 hours
  Octreotide Assay: 0.1303 mg/mL
  Octreotide Assay (% Stability): (66.31) %
pH 3.0, Glycine-HCl, 0 hours
  Octreotide Assay: 0.2214 mg/mL
  Octreotide Assay (% Stability): (100.00) %
pH 3.0, Glycine-HCl, 24 hours
  Octreotide Assay: 0.2136 mg/mL
  Octreotide Assay (% Stability): (96.48) %
pH 3.0, Glycine-HCl, 48 hours
  Octreotide Assay: 0.2050 mg/mL
  Octreotide Assay (% Stability): (92.59) %
pH 3.0, Glycine-HCl, 69 hours
  Octreotide Assay: 0.2004 mg/mL
  Octreotide Assay (% Stability): (90.51) %
[1]
  Octreotide Assay: 0.1911 mg/mL
  Octreotide Assay (% Stability): (100.00) %
[2]
  Octreotide Assay: 0.1860 mg/mL
  Octreotide Assay (% Stability): (97.33) %
[3]
  Octreotide Assay: 0.1784 mg/mL
  Octreotide Assay (% Stability): (93.35) %
[4]
  Octreotide Assay: 0.1741 mg/mL
  Octreotide Assay (% Stability): (91.10) %
[5]
  Octreotide Assay: 0.2027 mg/mL
  Octreotide Assay (% Stability): (100.00) %
[6]
  Octreotide Assay: 0.1975 mg/mL
  Octreotide Assay (% Stability): (97.43) %
[7]
  Octreotide Assay: 0.1848 mg/mL
  Octreotide Assay (% Stability): (91.17) %
[8]
  Octreotide Assay: 0.1819 mg/mL
  Octreotide Assay (% Stability): (89.74) %
pH 6.0, Phosphate, 0 hours
  Octreotide Assay: 0.1934 mg/mL
  Octreotide Assay (% Stability): (100.00) %
pH 6.0, Phosphate, 24 hours
  Octreotide Assay: 0.1738 mg/mL
  Octreotide Assay (% Stability): (89.87) %
pH 6.0, Phosphate, 48 hours
  Octreotide Assay: 0.1434 mg/mL
  Octreotide Assay (% Stability): (74.15) %
pH 6.0, Phosphate, 69 hours
  Octreotide Assay: 0.1276 mg/mL
  Octreotide Assay (% Stability): (65.98) %
pH 7.0, Phosphate, 0 hours
  Octreotide Assay: 0.2047 mg/mL
  Octreotide Assay (% Stability): (100.00) %
pH 7.0, Phosphate, 24 hours
  Octreotide Assay: 0.1638 mg/mL
  Octreotide Assay (% Stability): (80.02) %
pH 7.0, Phosphate, 48 hours
  Octreotide Assay: 0.1247 mg/mL
  Octreotide Assay (% Stability): (60.92) %
pH 7.0, Phosphate, 69 hours
  Octreotide Assay: 0.1056 mg/mL
  Octreotide Assay (% Stability): (51.59) %
pH 8.0, Phosphate, 0 hours
  Octreotide Assay: 0.1906 mg/mL
  Octreotide Assay (% Stability): (100.00) %
pH 8.0, Phosphate, 24 hours
  Octreotide Assay: 0.0793 mg/mL
  Octreotide Assay (% Stability): (41.61) %
pH 8.0, Phosphate, 48 hours
  Octreotide Assay: 0.0369 mg/mL
  Octreotide Assay (% Stability): (19.36) %
pH 8.0, Phosphate, 69 hours
  Octreotide Assay: 0.0280 mg/mL
  Octreotide Assay (% Stability): (14.69) %
